Key:
M14 [1] = experiment: Cytotoxicity against human M14 cells after 48 hrs by SRB assay; format: functional; settings: M14, 48 h; for CC50: read-out: LC50 (the source's name)
M14 [2] = experiment: Cytotoxicity against human M14 cells assessed as cell growth at 10^-4 M after 48 hrs by SRB assay relative to control; format: functional; settings: M14, 48 h, read-out: Activity
CCRF-CEM [3] = experiment: Cytotoxicity against human CCRF-CEM cells after 48 hrs by SRB assay; format: functional; settings: read-out: LC50 (the source's name)
[4] = Cytotoxicity against human UACC257 cells after 48 hrs by SRB assay; format: functional; settings: UACC-257, 48 h
CCRF-CEM [5] = experiment: Cytotoxicity against human CCRF-CEM cells assessed as cell growth at 10^-8 M after 48 hrs by SRB assay relative to control; format: functional; settings: read-out: Activity
CCRF-CEM [6] = experiment: Cytotoxicity against human CCRF-CEM cells assessed as cell growth at 10^-7 M after 48 hrs by SRB assay relative to control; format: functional; settings: read-out: Activity
M14 [7] = experiment: Cytotoxicity against human M14 cells assessed as cell growth at 10^-8 M after 48 hrs by SRB assay relative to control; format: functional; settings: M14, 48 h, read-out: Activity
[8] = Cytotoxicity against human UACC257 cells assessed as cell growth at 10^-4 M after 48 hrs by SRB assay relative to control; format: functional; settings: UACC-257, 48 h, read-out: Activity
[9] = Cytotoxicity against human UACC257 cells assessed as cell growth at 10^-8 M after 48 hrs by SRB assay relative to control; format: functional; settings: UACC-257, 48 h, read-out: Activity
RPMI-8226 [10] = experiment: Cytotoxicity against human RPMI8226 cells assessed as cell growth at 10^-7 M after 48 hrs by SRB assay relative to control; format: functional; settings: RPMI-8226, 48 h, read-out: Activity
RPMI-8226 [11] = experiment: Cytotoxicity against human RPMI8226 cells after 48 hrs by SRB assay; format: functional; settings: RPMI-8226, 48 h; for CC50: read-out: LC50 (the source's name)
[12] = Cytotoxicity against human UACC257 cells assessed as cell growth at 10^-7 M after 48 hrs by SRB assay relative to control; format: functional; settings: UACC-257, 48 h, read-out: Activity
CCRF-CEM [13] = experiment: Cytotoxicity against human CCRF-CEM cells assessed as cell growth at 10^-6 M after 48 hrs by SRB assay relative to control; format: functional; settings: read-out: Activity
RPMI-8226 [14] = experiment: Cytotoxicity against human RPMI8226 cells assessed as cell growth at 10^-6 M after 48 hrs by SRB assay relative to control; format: functional; settings: RPMI-8226, 48 h, read-out: Activity
[15] = Cytotoxicity against human UACC257 cells assessed as cell growth at 10^-6 M after 48 hrs by SRB assay relative to control; format: functional; settings: UACC-257, 48 h, read-out: Activity
CCRF-CEM [16] = experiment: Cytotoxicity against human CCRF-CEM cells assessed as cell growth at 10^-4 M after 48 hrs by SRB assay relative to control; format: functional; settings: read-out: Activity
RPMI-8226 [17] = experiment: Cytotoxicity against human RPMI8226 cells assessed as cell growth at 10^-4 M after 48 hrs by SRB assay relative to control; format: functional; settings: RPMI-8226, 48 h, read-out: Activity
A549 = experiment: Cytotoxicity against human A549 cells assessed as cell growth at 10^-4 M after 48 hrs by SRB assay relative to control; format: functional; settings: A549, 48 h, read-out: Activity
NCI-H522 [18] = experiment: Cytotoxicity against human NCI-H522 cells assessed as cell growth at 10^-4 M after 48 hrs by SRB assay relative to control; format: functional; settings: NCI-H522, 48 h, read-out: Activity
DU-145 [19] = experiment: Cytotoxicity against human DU145 cells after 48 hrs by SRB assay; format: functional; settings: DU-145, 48 h
BT-549 [20] = experiment: Cytotoxicity against human BT549 cells after 48 hrs by SRB assay; format: functional; settings: BT-549, 48 h; for CC50: read-out: LC50 (the source's name)
SR [21] = experiment: Cytotoxicity against human SR cells assessed as cell growth at 10^-8 M after 48 hrs by SRB assay relative to control; format: functional; settings: read-out: Activity
NCI-H522 [22] = experiment: Cytotoxicity against human NCI-H522 cells assessed as cell growth at 10^-8 M after 48 hrs by SRB assay relative to control; format: functional; settings: NCI-H522, 48 h, read-out: Activity
DU-145 [23] = experiment: Cytotoxicity against human DU145 cells assessed as cell growth at 10^-4 M after 48 hrs by SRB assay relative to control; format: functional; settings: DU-145, 48 h, read-out: Activity
BT-549 [24] = experiment: Cytotoxicity against human BT549 cells assessed as cell growth at 10^-4 M after 48 hrs by SRB assay relative to control; format: functional; settings: BT-549, 48 h, read-out: Activity
DU-145 [25] = experiment: Cytotoxicity against human DU145 cells assessed as cell growth at 10^-8 M after 48 hrs by SRB assay relative to control; format: functional; settings: DU-145, 48 h, read-out: Activity
BT-549 [26] = experiment: Cytotoxicity against human BT549 cells assessed as cell growth at 10^-8 M after 48 hrs by SRB assay relative to control; format: functional; settings: BT-549, 48 h, read-out: Activity
SR [27] = experiment: Cytotoxicity against human SR cells assessed as cell growth at 10^-7 M after 48 hrs by SRB assay relative to control; format: functional; settings: read-out: Activity
SR [28] = experiment: Cytotoxicity against human SR cells after 48 hrs by SRB assay; format: functional; settings: for CC50: read-out: LC50 (the source's name)
[29] = Cytotoxicity against human PC3 cells assessed as cell growth at 10^-7 M after 48 hrs by SRB assay relative to control; format: functional; settings: PC-3, 48 h, read-out: Activity
NCI-H522 [30] = experiment: Cytotoxicity against human NCI-H522 cells assessed as cell growth at 10^-6 M after 48 hrs by SRB assay relative to control; format: functional; settings: NCI-H522, 48 h, read-out: Activity
DU-145 [31] = experiment: Cytotoxicity against human DU145 cells assessed as cell growth at 10^-6 M after 48 hrs by SRB assay relative to control; format: functional; settings: DU-145, 48 h, read-out: Activity
K562 = experiment: Cytotoxicity against human K562 cells assessed as cell growth at 10^-4 M after 48 hrs by SRB assay relative to control; format: functional; settings: K562, 48 h, read-out: Activity
MOLT-4 = experiment: Cytotoxicity against human MOLT4 cells assessed as cell growth at 10^-4 M after 48 hrs by SRB assay relative to control; format: functional; settings: MOLT-4, 48 h, read-out: Activity
[32] = biological target: Proto-oncogene tyrosine-protein kinase Src (Homo sapiens, UniProt P12931); experiment: Inhibition of Src (unknown origin)
Chain of Proto-oncogene tyrosine-protein kinase Src (P12931 2-536 limits assumed): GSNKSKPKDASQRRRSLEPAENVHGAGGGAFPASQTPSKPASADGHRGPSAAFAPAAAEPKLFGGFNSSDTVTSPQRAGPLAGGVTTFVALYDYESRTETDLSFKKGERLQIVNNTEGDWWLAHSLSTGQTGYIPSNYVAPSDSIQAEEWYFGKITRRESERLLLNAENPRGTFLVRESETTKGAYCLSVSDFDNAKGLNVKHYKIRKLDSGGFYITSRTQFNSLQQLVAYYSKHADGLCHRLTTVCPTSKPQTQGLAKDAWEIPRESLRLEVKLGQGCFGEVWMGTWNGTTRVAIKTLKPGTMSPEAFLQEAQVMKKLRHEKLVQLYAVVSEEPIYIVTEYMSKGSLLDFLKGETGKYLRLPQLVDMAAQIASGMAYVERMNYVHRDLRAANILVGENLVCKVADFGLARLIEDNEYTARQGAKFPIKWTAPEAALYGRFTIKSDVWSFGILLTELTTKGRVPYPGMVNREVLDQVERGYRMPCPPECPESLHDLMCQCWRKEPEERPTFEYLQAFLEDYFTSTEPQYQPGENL

## COc1ccc(CCN2COc3c([C@@H](C)CCC=C(C)C)ccc(C)c3C2)cc1OC
M14 [1]
  GI50: 1.69 µM
  TGI: 3.18 µM
  CC50: 5.97 µM
M14 [2]
  growth at 100 µM: -100%
CCRF-CEM [3]
  CC50: > 100 µM
[4]
  GI50: 0.0283 µM
  TGI: 10.9 µM
[4]; read-out: LC50 (the source's name)
  CC50: 40.8 µM
CCRF-CEM [5]
  growth at 0.01 µM: 96%
CCRF-CEM [6]
  growth at 0.1 µM: 98%
M14 [7]
  growth at 0.01 µM: 95%
[8]
  growth at 100 µM: -84%
[9]
  growth at 0.01 µM: 80%
RPMI-8226 [10]
  growth at 0.1 µM: 93%
RPMI-8226 [11]
  GI50: 2.09 µM
  TGI: 7.67 µM
  CC50: > 100 µM
[12]
  growth at 0.1 µM: 91%
CCRF-CEM [13]
  growth at 1 µM: 93%
RPMI-8226 [14]
  growth at 1 µM: 78%
[15]
  growth at 1 µM: 91%
CCRF-CEM [16]
  growth at 100 µM: -29%
RPMI-8226 [17]
  growth at 100 µM: -28%
A549
  growth at 100 µM: -52%

## CC(C)=CCC[C@H](C)c1ccc(C)c2c1OCN(CC1CCNCC1)C2
NCI-H522 [18]
  growth at 100 µM: -84%
M14 [1]
  GI50: 10.2 µM
  TGI: 24.5 µM
  CC50: 58.9 µM
M14 [2]
  growth at 100 µM: -80%
DU-145 [19]
  GI50: 16.4 µM
  LC50: 63.2 µM
  TGI: 32.2 µM
BT-549 [20]
  GI50: 16.9 µM
  TGI: 41.6 µM
  CC50: > 100 µM
SR [21]
  growth at 0.01 µM: 95%
NCI-H522 [22]
  growth at 0.01 µM: 87%
M14 [7]
  growth at 0.01 µM: 96%
DU-145 [23]
  growth at 100 µM: -94%
BT-549 [24]
  growth at 100 µM: -49%
DU-145 [25]
  growth at 0.01 µM: 104%
BT-549 [26]
  growth at 0.01 µM: 94%
RPMI-8226 [10]
  growth at 0.1 µM: 102%
SR [27]
  growth at 0.1 µM: 98%
RPMI-8226 [11]
  GI50: 7.25 µM
  TGI: 32.6 µM
  CC50: > 100 µM
SR [28]
  GI50: 2.79 µM
  TGI: 9.83 µM
  CC50: > 100 µM
[29]
  growth at 0.1 µM: 100%
RPMI-8226 [14]
  growth at 1 µM: 110%
NCI-H522 [30]
  growth at 1 µM: 97%
DU-145 [31]
  growth at 1 µM: 102%
K562
  growth at 100 µM: -50%
MOLT-4
  growth at 100 µM: -39%
RPMI-8226 [17]
  growth at 100 µM: -38%
A549
  growth at 100 µM: -84%

## CC(C)=CCC[C@H](C)c1ccc(C)c(CNCC2CCNCC2)c1O
NCI-H522 [18]
  growth at 100 µM: 9%
DU-145 [19]
  GI50: 16.4 µM
  LC50: > 25 µM
  TGI: > 25 µM
BT-549 [20]
  GI50: 9.72 µM
  TGI: > 25 µM
  CC50: > 25 µM
CCRF-CEM [3]
  CC50: 1.64 µM
SR [21]
  growth at 0.01 µM: 83%
NCI-H522 [22]
  growth at 0.01 µM: 98%
[8]
  growth at 100 µM: -8.3%
DU-145 [23]
  growth at 100 µM: 41%
BT-549 [24]
  growth at 100 µM: 22%
[9]
  growth at 0.01 µM: 93%
DU-145 [25]
  growth at 0.01 µM: 100%
BT-549 [26]
  growth at 0.01 µM: 98%
SR [27]
  growth at 0.1 µM: 84%
SR [28]
  GI50: 3.71 µM
  TGI: 9.67 µM
  CC50: > 25 µM
[12]
  growth at 0.1 µM: 95%
[29]
  growth at 0.1 µM: 99%
NCI-H522 [30]
  growth at 1 µM: 104%
[15]
  growth at 1 µM: 80%
DU-145 [31]
  growth at 1 µM: 100%
K562
  growth at 100 µM: -58%
MOLT-4
  growth at 100 µM: -22%

## CC(C)=CCC[C@H](C)c1ccc(C)cc1O
[32]
  IC50: 35.8 µM
